Ends that are not written are not given here.
Columns and labels:
IAV A/PR/8/34 [1] = test system: IAV A/PR/8/34; design: species or system C57BL/6 mice; details: mouse, in vivo
IAV A/PR/8/34 [2] = test system: IAV A/PR/8/34; design: species or system C57BL/6 mice; details: mouse, in vivo; remark: listed apart in the source
IFN-γ [3] = test system: IFN-γ; design: species or system C57BL/6 mice; details: mouse, in vivo
PAR2 = biological target: T1, PAR2 (Homo sapiens, UniProt P55085); test: Flow cytometry of PAR2 expression in A549 cells after PAR2 stimulation; type: cell-based; details: 250 μM peptide, 24 hours post-stimulation, permeabilized cells
T1 construct: endogenous in cells; host or cells: A549 (human alveolar type II epithelial cell line, ATCC)
T1 sequence (P55085 26-397): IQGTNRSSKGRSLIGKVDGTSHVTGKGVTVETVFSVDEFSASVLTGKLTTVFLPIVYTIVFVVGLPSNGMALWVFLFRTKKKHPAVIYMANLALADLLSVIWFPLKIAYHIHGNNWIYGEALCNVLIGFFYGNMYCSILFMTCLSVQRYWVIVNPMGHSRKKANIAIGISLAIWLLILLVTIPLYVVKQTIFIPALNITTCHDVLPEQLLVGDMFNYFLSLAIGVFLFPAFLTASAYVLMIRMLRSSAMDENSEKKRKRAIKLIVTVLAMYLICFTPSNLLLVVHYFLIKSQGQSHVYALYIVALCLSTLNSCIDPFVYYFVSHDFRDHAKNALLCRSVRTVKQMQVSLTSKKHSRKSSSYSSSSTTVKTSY
Method: A549 cells were infected or not at a MOI of 0.001 for 24 hours and flow cytometry experiments were done on permeabilized cells, as previously described (Riteau B. et al. 2001; Riteau B. et al. 2001), using the SAM11 anti-PAR2 antibody (Santa-cruz biotechnology, Inc, USA). PAR2 stimulation of A549 cells was performed using 250 μM of PAR2 specific activating peptide SLIGRL-NH2 and flow cytometry experiment was performed 24 hours post-stimulation.

IAV A/PR/8/34 (H1N1) = type: cell-based, influenza virus type A
RANTES [4] = type: cell-based, human
IFN-γ [5] = type: cell-based, human
IAV A/PR/8/34 [6] = test system: IAV A/PR/8/34; design: species or system C57BL/6 mice; details: mouse, in vivo; remark: listed apart in the source
neutrophils = test system: neutrophils; design: species or system C57BL/6 mice; details: mouse, in vivo
RANTES [7] = test system: RANTES; design: species or system C57BL/6 mice; details: mouse, in vivo
IAV A/PR/8/34 [8] = test: Survival and weight loss of IAV-infected IFN-γ-deficient mice treated with peptide; details: 50 000 pfu/mice
Source text: Six-weeks-old IFN-γ-deficient mice (background C57BL/6, n=36) obtained from the INRA “Experimental Infectiology Platform” of Tours (France) were anaesthetized once and infected intranasally with 50 000 pfu of A/PR/8/34 in the presence or absence of SLIGRL-NH2. C57BL/6J/WT mice (n=20) were used as control. Infected mice were then monitored daily for survival.

## LRGILS-NH2 [reference compound]
IAV A/PR/8/34 [1]
  survival rate: had no effect
IAV A/PR/8/34 [2]
  overall appearance of lungs (photographic pictures): severely injured
IFN-γ [3]
  IFN-γ release in BAL after IAV infection: No significant increase

## SLIGRL-NH2
PAR2
  effect on PAR2 synthesis: had no effect
IAV A/PR/8/34 (H1N1)
  inhibition of IAV replication in the presence of anti-IFNγ neutralizing antibody: could be reversed
  virus production: produced less virus
RANTES [4]
  RANTES level: at the limit of detection
  RANTES production: significantly inhibited
IFN-γ [5]
  IFN-γ level: at the limit of detection
  IFN-γ release: induced IFN-γ release
  time of peak IFN-γ release: 8 hours post-infection
IAV A/PR/8/34 [1]
  protection stable, inhibiting mortality until: ≥ 12 days
  survival rate: protected mice from death, in a dose-dependent manner
IAV A/PR/8/34 [6]
  decreased infectious virus load in lungs at lower doses of IAV infection: also observed
  infectious virus load in lungs: significantly decreased
IAV A/PR/8/34 [2]
  histopathologic examination of the lungs: lack evidence of pathology
neutrophils
  influx of neutrophils in BAL: significantly decreased
  number of neutrophils in BAL at 48-hours compared to level at 24-hours: significantly increased
RANTES [7]
  IAV-induced increase of RANTES in BAL: significantly inhibited
  release of RANTES in BAL: three-fold increase
IFN-γ [3]
  IFN-γ release in BAL after IAV infection: significant increase
  release of IFN-γ in BAL: no effect
IAV A/PR/8/34 [8]
  kinetic of weight loss after IAV infection: did not modify
  protection from death: did not protect mice from death
